# According to patent publication US20100292214A1, “Compounds with Antiparasitic Activity, Applications thereof to the Treatment of Infectious Diseases Caused by Apicomplexans” (commissariat a l'Energie Atomique, priority 2007, published 2010):
# Structures can show the parent of a compound that is named as a salt.
# Assays:
# [1] = system: asynchronous 3D7 chloroquine-sensitive P. falciparum infected red blood cells; assay: Labeled hypoxanthine incorporation assay (in vitro anti-malarial activity); type: cell-based; settings: Plasmodium falciparum, 3D7, Erythrocyte, 3D7 chloroquine-sensitive strain, infected RBC, 48 h contact, [3H]-hypoxanthine incorporation; two independent experiments in duplicates; read-out: IC50 assessed on Plasmodium Falciparum
# [2] = system: Toxoplasma gondii RH-β1 strain; assay: microbe, parasite or virus in culture; type: cell-based; settings: Toxoplasma gondii, read-out: IC50 assessed on Toxoplama Gondii
SMILES,IC50 [1] [µM],IC50 [2] [µM]
"C[C@@H](COC(=O)N1CCCC1Cn1c(=O)[nH]c2ccccc21)N(Cc1ccccc1)Cc1ccccc1 (stereo partly drawn) [Compound 23, (S)-2-(dibenzylamino)propyl 2-((1,2-dihydro-2-oxobenzo[d]imidazol-3-yl)methyl)pyrrolidine-1-carboxylate]",7.27,3.1
"C[C@@H](COC(=O)N1CCC(n2c(=O)[nH]c3ccccc32)C1)N(Cc1ccccc1)Cc1ccccc1 (stereo partly drawn) [Compound 17, (S)-2-(dibenzylamino)propyl 3-(1,2-dihydro-2-oxobenzo[d]imidazol-3-yl)pyrrolidine-1-carboxylate]",7.18,3.3
"O=C(OCCN(Cc1ccccc1)Cc1cccc(Oc2ccccc2)c1)N1CCC(n2c(=O)[nH]c3ccccc32)CC1 [Compound 123, 2-(benzyl(3-phenoxybenzyl)amino)ethyl 4-(2-oxo-2,3-dihydro-1H-benzo[d]imidazol-1-yl)piperidine-1-carboxylate hydrochloride]",1.42,3.7
"C[C@@H](COC(=O)N1CCC(n2c(=O)[nH]c3ccccc32)CC1)N(Cc1ccccc1)Cc1cccs1 [Compound 139, (S)-2-(benzyl(thiophen-2-ylmethyl)amino)propyl 4-(2-oxo-2,3-dihydro-1H-benzo[d]imidazol-1-yl)piperidine-1-carboxylate hydrochloride]",3.41,5
"C[C@@H](COC(=O)N1CCC(Nc2nc3ccccc3[nH]2)CC1)N(Cc1ccccc1)Cc1ccccc1 [Compound 93, (S)-2-(Dibenzylamino)propyl 4-(1H-benzo[d]imidazol-2-ylamino)piperidine-1-carboxylate]",0.18,0.98
"CCOC(=O)C1CN(C(=O)OC[C@H](C)N(Cc2ccccc2)Cc2ccccc2)CCC1n1c(=O)[nH]c2ccccc21 (stereo partly drawn) [Compound 18, 1-(S)-2-(dibenzylamino)propyl 3-ethyl 4-(1,2-dihydro-2-oxobenzo[d]imidazol-3-yl)piperidine-1,3-dicarboxylate]",1.52,2.81
"O=C(OCCCN(Cc1ccccc1)Cc1ccc([N+](=O)[O-])cc1)N1CCC(n2c(=O)[nH]c3ccccc32)CC1 [Compound 114, 3-(benzyl(4-nitrobenzyl)amino)propyl 4-(2-oxo-2,3-dihydro-1H-benzo[d]imidazol-1-yl)piperidine-1-carboxylate hydrochloride]",3.17,3.3
"C[C@@H](COC(=O)N1CCC(Nc2nc3ccccc3n2C(=O)OC[C@H](C)N(Cc2ccccc2)Cc2ccccc2)CC1)N(Cc1ccccc1)Cc1ccccc1 [Compound 94, (S)-2-(dibenzylamino)propyl 2-(1-(((S)-2-(dibenzylamino)propoxy)carbonyl)piperidin-4-ylamino)-1H-benzo[d]imidazole-1-carboxylate]",2.62,9
"C[C@@H](COC(=O)N1CCC(n2c(=O)n(Cc3ccccc3)c3ccccc32)CC1)N(Cc1ccccc1)Cc1ccccc1 [Compound 71, (S)-2-(dibenzylamino)propyl 4-(1-benzyl-1,2-dihydro-2-oxobenzo[d]imidazol-3-yl)piperidine-1-carboxylate]",0.77,1.76
"O=C(CCCN(Cc1ccccc1)Cc1ccccc1)N1CCC(n2c(=O)[nH]c3ccccc32)CC1 [Compound 96, 1-[1-(4-Dibenzylamino-butyryl)-piperidin-4-yl]-1,3-dihydrobenzoimidazol-2-one]",11.3,6.3
"CC(C)(C)OC(=O)NCCn1c(=O)n(C2CCN(C(=O)OC[C@H](Cc3ccccc3)N(Cc3ccccc3)Cc3ccccc3)CC2)c2ccccc21 [Compound 74, (S)-2-(dibenzylamino)-3-phenylpropyl 4-(3-(2-tert-butyloxycarbonylaminoethyl)-2-oxo-2,3-dihydro-1H-benzo[d]imidazol-1-yl)piperidine-1-carboxylate]",0.384,3.2
"C[C@@H](COC(=O)N1CCC(n2cnc3ccccc32)CC1)N(Cc1ccccc1)Cc1ccccc1 [Compound 3, (S)-2-(dibenzylamino)propyl 4-(1H-benzo[d]imidazol-1-yl)piperidine-1-carboxylate]",1.81,8
"C[C@@H](COC(=O)N1CCC(n2c(=O)[nH]c3cc(Cl)ccc32)CC1)N(Cc1ccccc1)Cc1ccccc1 [Compound 38, (S)-2-(dibenzylamino)propyl 4-(6-chloro-1,2-dihydro-2-oxobenzo[d]imidazol-3-yl)piperidine-1-carboxylate]",4.68,1
"Cc1ccccc1S(=O)(=O)N(c1ccccc1)C1CCN(C(=O)OC[C@H](C)N(Cc2ccccc2)Cc2ccccc2)CC1 [Compound 167, (S)-2-(dibenzylamino)propyl 4-(N-phenyl-2-methylphenylsulfonamido)piperidine-1-carboxylate]",0.338,3.9
"COc1cccc(CN(CCCOC(=O)N2CCC(n3c(=O)[nH]c4ccccc43)CC2)Cc2ccccc2)c1 [Compound 149, 3-(benzyl(3-methoxybenzyl)amino)propyl 4-(2-oxo-2,3-dihydro-1H-benzo[d]imidazol-1-yl)piperidine-1-carboxylate hydrochloride]",0.588,3.5
"C[C@@H](COC(=O)N1CC=C(n2c(=O)[nH]c3ccccc32)CC1)N(Cc1ccccc1)Cc1ccccc1 [Compound 28, (S)-2-(dibenzylamino)propyl 5,6-dihydro-4-(1,2-dihydro-2-oxobenzo[d]imidazol-3-yl)pyridine-1(2H)-carboxylate]",4.1,3.5
"O=C(OCCCN(Cc1ccccc1)Cc1cccc(Cl)c1)N1CCC(n2c(=O)[nH]c3ccccc32)CC1 [Compound 142, 3-(benzyl(3-chlorobenzyl)amino)propyl 4-(2-oxo-2,3-dihydro-1H-benzo[d]imidazol-1-yl)piperidine-1-carboxylate hydrochloride]",2.92,1.2
"O=C(OCCC(c1ccccc1)c1ccccc1)N1CCC(n2c(=O)[nH]c3ccccc32)CC1 [Compound 36, 3,3-diphenylpropyl 4-(1,2-dihydro-2-oxobenzo[d]imidazol-3-yl)piperidine-1-carboxylate]",8.54,1.2
"C[C@@H](CNC(=N)N1CCC(n2c(=O)[nH]c3ccccc32)CC1)N(Cc1ccccc1)Cc1ccccc1 [Compound 95, N—((S)-2-(dibenzylamino)propyl)-4-(1,2-dihydro-2-oxobenzo[d]imidazol-3-yl)piperidine-1-carboxamidine]",0.511,11
"O=c1[nH]c2ccccc2n1C1CCN(CCCCN(Cc2ccccc2)Cc2ccccc2)CC1 [Compound 9, 1-(1-(4-(dibenzylamino)butyl)piperidin-4-yl)-1H-benzo[d]imidazol-2(3H)-one]",2.95,1.5
"C[C@@H](COC(=O)N1CCC(n2c(=O)n(C(=O)c3ccccc3)c3ccccc32)CC1)N(Cc1ccccc1)Cc1ccccc1 [Compound 64, (S)-2-(dibenzylamino)propyl 4-(1,2-dihydro-2-oxo-1-(benzoyl)benzo[d]imidazol-3-yl)piperidine-1-carboxylate]",2.88,0.96
"C[C@@H](COC(=O)N1CCC(c2c[nH]c3ccccc23)CC1)N(Cc1ccccc1)Cc1ccccc1 [Compound 44, (S)-2-(dibenzylamino)propyl 4-(1H-indol-3-yl)piperidine-1-carboxylate]",5.21,1.85
"C[C@@H](COC(=O)N1CCC(n2c(=O)[nH]c3ccccc32)CC1)N(Cc1ccccc1)Cc1cc2ccccc2c2ccccc12 [Compound 137, (S)-2-(benzyl(phenanthren-9-ylmethyl)amino)propyl 4-(2-oxo-2,3-dihydro-1H-benzo[d]imidazol-1-yl)piperidine-1-carboxylate hydrochloride]",1.61,0.7
"O=C(OCCN(Cc1ccccc1)Cc1ccc([N+](=O)[O-])cc1)N1CCC(n2c(=O)[nH]c3ccccc32)CC1 [Compound 98, 2-(N-(4-nitrobenzyl)-N-benzylamino)ethyl 4-(1,2-dihydro-2-oxobenzo[d]imidazol-3-yl)piperidine-1-carboxylate]",3.04,3.33
"C[C@@H](COC(=O)N1CCC(Oc2nc3ccccc3n2C)CC1)N(Cc1ccccc1)Cc1ccccc1 [Compound 5, (S)-2-(dibenzylamino)propyl 4-(1-methyl-1H-benzo[d]imidazol-2-yloxy)piperidine-1-carboxylate]",6.16,2.5
"COc1cccc(CN(CCOC(=O)N2CCC(n3c(=O)[nH]c4ccccc43)CC2)Cc2ccccc2)c1 [Compound 122, 2-(benzyl(3-methoxybenzyl)amino)ethyl 4-(2-oxo-2,3-dihydro-1H-benzo[d]imidazol-1-yl)piperidine-1-carboxylate hydrochloride]",3.72,1.75
"C[C@@H](COC(=O)N1CCC(n2c(=O)n(-c3ccccc3)c3ccccc32)CC1)N(Cc1ccccc1)Cc1ccccc1 [Compound 75, (S)-2-(dibenzylamino)propyl 4-(1,2-dihydro-2-oxo-1-phenylbenzo[d]imidazol-3-yl)piperidine-1-carboxylate]",2.29,3.5
"O=C(OCCN(Cc1ccccc1)Cc1ccc(F)cc1)N1CCC(n2c(=O)[nH]c3ccccc32)CC1 [Compound 119, 2-(benzyl(4-fluorobenzyl)amino)ethyl 4-(2-oxo-2,3-dihydro-1H-benzo[d]imidazol-1-yl)piperidine-1-carboxylate hydrochloride]",3.57,1.4
"C[C@@H](COC(=O)N1CCC(n2c(=O)oc3ccccc32)CC1)N(Cc1ccccc1)Cc1ccccc1 [Compound 2, (S)-2-(dibenzylamino)propyl 4-(2-oxobenzo[d]oxazol-3(2H)-yl)piperidine-1-carboxylate]",14.8,0.8
"C[C@@H](COC(=O)N1CCC(n2c(=O)[nH]c3cc4ccccc4cc32)CC1)N(Cc1ccccc1)Cc1ccccc1 [Compound 12, (S)-2-(dibenzylamino)propyl 4-(1,2-dihydro-2-oxonaphtho[2,3-d]imidazol-3-yl)piperidine-1-carboxylate]",7.2,0.75
